Patent publication US12624050B2, “Three fused ring derivative-containing salt or crystal form and pharmaceutical composition thereof” (Shanghai Hansoh Biomedical Co., Ltd., priority 2019, dated 2026)

Columns and labels:
PI3Kδ = target: T1, PI3Kδ (Homo sapiens, UniProt O00329); experiment: ADP-Glo Lipid Kinase Assay, PI3Kδ kinase activity; type: biochemical; conditions: for Selectivity of PI3Kα vs PI3Kδ: ratio of IC50 values
T1 construct: purchased Carna #11-103
Description: (§1) In this experiment, ADP-Glo Lipid Kinase Assay (Promega #V9102) from Promega was used. The lipid kinases PI3Kα/β/γ/δ catalyzed the ATP-to-ADP reaction in the presence of the substrate PIP2:3PS and ATP. The lipid kinase activity was characterized by measuring the ADP content in the reaction, and the half inhibition concentrations IC50 of the compounds on PI3Kα/β/γ/δ kinase activity were obtained.
(§2) Kinase reactions were carried out in white 384-well plates (Perkin Elmer #6007299). 2 μL of the compound of various concentrations diluted with ddH2O containing 1% DMSO was added to each well, and 2 μL of ddH2O containing 1% DMSO was added to positive control wells. Then 2 μL of 0.1 to 2 nM PI3K kinase solution diluted with 5× kinase buffer (HEPES 250 mM, MgCl2 15 mM, NaCl 250 mM, BSA 0.05%) was added to each well, and 2 μL of 5× kinase buffer was added to the negative control wells. 4 μL of 50 μM substrate PIP2:3PS (Promega #V1701) prepared with 10× Dilution buffer and ddH2O was added to all wells. Finally, 2 μL of 50 to 100 μM ATP solution diluted with water was added to start the reaction. After the reaction was carried out at room temperature for 90 to 120 minutes, 10 µL of ADP-Glo Reagent (containing 10 mM MgCl2) was added to each well, and the reaction was carried out at room temperature for 60 minutes to eliminate excess adenosine triphosphate (ATP) in the reaction. Then 20 μL of Kinase Detection Reagent was added to each well. After the reaction was carried out for 20 minutes at room temperature in the dark, the chemiluminescence was measured by BioTek Synergy H1 microplate reader.
(§3) The percentage inhibition data of the compound-treated well was calculated from positive control wells (DMSO control wells) and negative control wells (no kinase added) on the plate {% inhibition=100−[(test compound value−negative control value)]/(positive control value-negative control value)×100}. IC50 values were calculated using GraphPad prism and using a four-parameter nonlinear logistic formula to fit the data of different concentrations and corresponding percent inhibition.

HCC1954 cell = experiment: In vivo efficacy test, HCC1954 tumor-bearing nude mice; set-up: species or system BALB/c nude mice; conditions: oral, 10 mg/kg, once/day, 21 days (Example 22: 19 days)
Description: • a. A strain of HCC1954 cell was taken from the cell bank, recovered with RPMI-1640 medium (RPMI-1640+10% FBS+1% SP), plated in a cell culture flask (cell type, date, name of the experimenter and the like were labeled on the wall of the flask) and cultured in a CO2 incubator (the temperature was 37° C. and the CO2 concentration was 5% in the incubator). • b. Cells were passaged when they covered 80 to 90% of the bottom of the culture flask. After passage, the cells continued to be cultured in the CO2 incubator. This process was repeated until the number of cells was sufficient for the in vivo efficacy test. • c. The cultured cells were collected and counted with an automatic cell counter, and then resuspended with PBS and Matrigel Matrix according to the counting results to prepare a cell suspension (density 5×10^7/mL), which was placed in an ice box for use. 4.3.2 Cell Inoculation • a. The nude mice were labeled with disposable universal ear tags for rats and mice before inoculation. • b. During the inoculation, the cell suspension was mixed well. 0.1 to 1 mL of the cell suspension was drawn with a 1 mL syringe, air bubbles were removed, and then the syringe was placed on an ice pack for use. • c. The nude mouse was bound with the left hand. The position on the right side of the back close to the right shoulder of the nude mouse (inoculation site) was disinfected with 75% alcohol. Inoculation started after 30 seconds. • d. The test nude mice were successively inoculated (each mouse was inoculated with 0.1 mL of cell suspension). 4.3.3 Tumor Measurement, Grouping and Administration of Tumor-Bearing Mice • a. According to the tumor growth, the tumors was measured on 14 to 18 days after inoculation, and the tumor size was calculated. Calculation of tumor volume: tumor volume (mm^3)=length (mm)×width (mm)×width (mm)/2 • b. The tumor-bearing mice were grouped according to their body weight and tumor size by random grouping. • c. The test compounds were administered according to the grouping results (administration route: oral administration; administration dose: 10 mg/kg; administration volume: 10 mL/kg; administration frequency: once/day; administration cycle: 21 days; vehicle: 0.5% CMC/1% Tween 80). • d. Tumors were measured and weighed twice a week after the administration of test compounds began. • e. Animals were euthanized at the end of the experiment. • f. Data were processed by using softwares such as Excel. […] When the tumor regress, TGI (%)=[1−(average tumor volume of the treatment group at the end of the administration−average tumor volume of the treatment group at the beginning of the administration)/average tumor volume of the treatment group at the beginning of the administration]×100%.

PI3Kγ = target: T2, PI3Kγ (Homo sapiens, UniProt P48736); experiment: ADP-Glo Lipid Kinase Assay, PI3Kγ kinase activity; type: biochemical; conditions: for Selectivity of PI3Kα vs PI3Kγ: ratio of IC50 values
T2 construct: purchased Thermofisher #PV4786
Description: as §1, §2, §3

PI3Kβ = target: T3, PI3Kβ (Homo sapiens, UniProt P42338); experiment: ADP-Glo Lipid Kinase Assay, PI3Kβ kinase activity; type: biochemical; conditions: for Selectivity of PI3Kα vs PI3Kβ: ratio of IC50 values
T3 construct: purchased Carna #11-102
Description: as §1, §2, §3

HGC-27 (E542K) = experiment: Proliferation inhibition of PI3Kα mutant cancer cells, Cell Titer-Glo, HGC-27; type: cell-based; conditions: Homo sapiens
Description: (§4) The proliferation inhibitory effect of the compounds of the examples on the PI3Kα mutant cancer cell lines (HCC1954, HGC-27 and MKN1) was detected by Cell Titer-Glo method. Cell lines were cultured in RPMI 1640 medium (Gibco #22400089) containing 10% FBS (Gibco #10091148) and 1% P/S (Hyclone #SV30010) under the condition of 37° C. and 5% CO2. The cells were collected before the experiment, and the cell density was adjusted after cell counting. The cells were seeded in a white 96-well plate (Corning #3610) at a density of 1000 to 10000 cells/well, and incubated in an incubator at 37° C. and 5% CO2 overnight. The prepared compound solutions of different concentrations and the corresponding solvent controls were added to the plate. The plate was again incubated in an incubator at 37° C. and 5% CO2 for 48 to 96 hours. Then the cell plate and its contents were equilibrated to room temperature. 20 to 100 μL of Cell Titer-Glo solution (Promega #G7573) was added to each well, and the plate was shaken and mixed well, then incubated at room temperature for 5 to 30 minutes in the dark. The chemiluminescence was measured by a SynergyH1 microplate reader from BioTek.
(§5) The percentage inhibition data of the compound-treated well was calculated from solvent control wells on the plate {% inhibition=100−([…])×100}. IC50 values were calculated using GraphPad prism and using a four-parameter nonlinear logistic formula to fit the data of different concentrations and corresponding percent inhibition.

HCC1954 (H1047R) = experiment: Proliferation inhibition of PI3Kα mutant cancer cells, Cell Titer-Glo, HCC1954; type: cell-based; conditions: Homo sapiens
Description: as §4, §5

MKN1 (E545K) = experiment: Proliferation inhibition of PI3Kα mutant cancer cells, Cell Titer-Glo, MKN1; type: cell-based; conditions: Homo sapiens, MKN-1
Description: as §4, §5

T3 sequence (P42338 whole entry): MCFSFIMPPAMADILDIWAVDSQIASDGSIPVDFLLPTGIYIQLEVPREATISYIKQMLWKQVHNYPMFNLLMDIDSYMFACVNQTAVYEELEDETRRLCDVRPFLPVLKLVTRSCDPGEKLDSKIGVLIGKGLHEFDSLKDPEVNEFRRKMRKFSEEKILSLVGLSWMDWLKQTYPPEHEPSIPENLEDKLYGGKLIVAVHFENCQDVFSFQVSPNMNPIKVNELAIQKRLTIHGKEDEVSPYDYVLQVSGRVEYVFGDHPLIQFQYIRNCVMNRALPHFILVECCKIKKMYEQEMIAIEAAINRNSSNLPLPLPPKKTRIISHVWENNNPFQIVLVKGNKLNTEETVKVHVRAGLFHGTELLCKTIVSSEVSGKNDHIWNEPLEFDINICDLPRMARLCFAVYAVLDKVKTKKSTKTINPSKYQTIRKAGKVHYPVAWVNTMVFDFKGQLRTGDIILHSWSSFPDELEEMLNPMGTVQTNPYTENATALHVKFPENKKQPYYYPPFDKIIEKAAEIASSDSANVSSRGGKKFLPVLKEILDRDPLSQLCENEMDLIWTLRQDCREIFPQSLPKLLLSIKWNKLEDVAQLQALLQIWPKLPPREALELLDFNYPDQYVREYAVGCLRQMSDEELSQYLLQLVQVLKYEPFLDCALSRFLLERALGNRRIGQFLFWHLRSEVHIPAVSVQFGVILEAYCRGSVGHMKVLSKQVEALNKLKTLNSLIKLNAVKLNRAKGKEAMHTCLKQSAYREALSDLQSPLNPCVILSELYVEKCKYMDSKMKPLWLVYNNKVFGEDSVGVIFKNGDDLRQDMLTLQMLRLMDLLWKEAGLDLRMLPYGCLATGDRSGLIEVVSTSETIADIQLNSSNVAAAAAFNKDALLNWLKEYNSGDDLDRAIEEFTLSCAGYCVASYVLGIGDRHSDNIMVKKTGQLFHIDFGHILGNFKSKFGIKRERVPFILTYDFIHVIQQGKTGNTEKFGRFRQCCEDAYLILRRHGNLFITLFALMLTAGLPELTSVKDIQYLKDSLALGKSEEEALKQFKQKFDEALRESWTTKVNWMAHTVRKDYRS
T3 sequence (P27986 whole entry partner): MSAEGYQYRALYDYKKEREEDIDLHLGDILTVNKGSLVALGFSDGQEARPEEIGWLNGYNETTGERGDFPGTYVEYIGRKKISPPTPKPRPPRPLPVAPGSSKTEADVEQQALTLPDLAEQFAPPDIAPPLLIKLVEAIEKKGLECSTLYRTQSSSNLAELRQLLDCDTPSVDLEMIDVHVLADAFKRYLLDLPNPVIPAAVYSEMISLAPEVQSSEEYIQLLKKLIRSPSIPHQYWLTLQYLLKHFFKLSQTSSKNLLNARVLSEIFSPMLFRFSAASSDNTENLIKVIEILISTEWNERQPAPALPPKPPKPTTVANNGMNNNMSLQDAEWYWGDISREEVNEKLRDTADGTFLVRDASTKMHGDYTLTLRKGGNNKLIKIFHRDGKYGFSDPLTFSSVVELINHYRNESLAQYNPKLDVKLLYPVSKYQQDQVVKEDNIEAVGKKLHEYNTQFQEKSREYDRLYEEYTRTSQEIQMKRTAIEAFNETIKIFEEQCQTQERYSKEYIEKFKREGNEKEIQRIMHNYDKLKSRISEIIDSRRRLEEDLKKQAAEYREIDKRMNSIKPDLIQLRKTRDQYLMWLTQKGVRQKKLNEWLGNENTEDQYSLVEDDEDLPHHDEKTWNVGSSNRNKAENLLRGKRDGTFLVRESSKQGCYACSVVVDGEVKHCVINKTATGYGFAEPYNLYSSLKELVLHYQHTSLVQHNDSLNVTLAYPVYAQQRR
T1 sequence (O00329 whole entry): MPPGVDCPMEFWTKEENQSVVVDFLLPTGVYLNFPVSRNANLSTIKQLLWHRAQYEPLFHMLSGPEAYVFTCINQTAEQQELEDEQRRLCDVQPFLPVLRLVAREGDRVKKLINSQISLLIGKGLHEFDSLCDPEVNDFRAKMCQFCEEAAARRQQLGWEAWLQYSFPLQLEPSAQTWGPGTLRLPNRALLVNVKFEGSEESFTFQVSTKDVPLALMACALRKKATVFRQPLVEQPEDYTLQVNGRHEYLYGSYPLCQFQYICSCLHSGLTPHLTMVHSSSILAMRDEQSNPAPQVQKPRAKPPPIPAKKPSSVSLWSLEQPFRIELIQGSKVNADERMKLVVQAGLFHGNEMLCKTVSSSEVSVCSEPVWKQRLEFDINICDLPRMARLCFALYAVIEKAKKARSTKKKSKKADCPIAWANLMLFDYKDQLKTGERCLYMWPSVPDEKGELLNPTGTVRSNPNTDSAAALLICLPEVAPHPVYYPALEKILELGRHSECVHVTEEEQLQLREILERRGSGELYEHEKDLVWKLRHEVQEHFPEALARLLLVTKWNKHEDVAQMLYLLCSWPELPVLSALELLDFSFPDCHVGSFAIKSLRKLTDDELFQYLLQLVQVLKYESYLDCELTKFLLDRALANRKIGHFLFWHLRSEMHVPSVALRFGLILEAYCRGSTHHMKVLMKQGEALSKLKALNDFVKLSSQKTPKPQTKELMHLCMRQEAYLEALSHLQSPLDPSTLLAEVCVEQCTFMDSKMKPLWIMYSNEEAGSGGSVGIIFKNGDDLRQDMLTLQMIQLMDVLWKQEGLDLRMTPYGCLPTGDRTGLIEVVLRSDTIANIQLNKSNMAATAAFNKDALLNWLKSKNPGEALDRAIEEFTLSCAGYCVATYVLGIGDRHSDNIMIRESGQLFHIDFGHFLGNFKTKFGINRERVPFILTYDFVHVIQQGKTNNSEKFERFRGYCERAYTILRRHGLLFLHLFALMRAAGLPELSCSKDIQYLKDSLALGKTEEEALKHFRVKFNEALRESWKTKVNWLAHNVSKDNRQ
T1 sequence (P27986 whole entry partner): as the sequence (P27986 whole entry partner) above
T2 sequence (P48736 whole entry): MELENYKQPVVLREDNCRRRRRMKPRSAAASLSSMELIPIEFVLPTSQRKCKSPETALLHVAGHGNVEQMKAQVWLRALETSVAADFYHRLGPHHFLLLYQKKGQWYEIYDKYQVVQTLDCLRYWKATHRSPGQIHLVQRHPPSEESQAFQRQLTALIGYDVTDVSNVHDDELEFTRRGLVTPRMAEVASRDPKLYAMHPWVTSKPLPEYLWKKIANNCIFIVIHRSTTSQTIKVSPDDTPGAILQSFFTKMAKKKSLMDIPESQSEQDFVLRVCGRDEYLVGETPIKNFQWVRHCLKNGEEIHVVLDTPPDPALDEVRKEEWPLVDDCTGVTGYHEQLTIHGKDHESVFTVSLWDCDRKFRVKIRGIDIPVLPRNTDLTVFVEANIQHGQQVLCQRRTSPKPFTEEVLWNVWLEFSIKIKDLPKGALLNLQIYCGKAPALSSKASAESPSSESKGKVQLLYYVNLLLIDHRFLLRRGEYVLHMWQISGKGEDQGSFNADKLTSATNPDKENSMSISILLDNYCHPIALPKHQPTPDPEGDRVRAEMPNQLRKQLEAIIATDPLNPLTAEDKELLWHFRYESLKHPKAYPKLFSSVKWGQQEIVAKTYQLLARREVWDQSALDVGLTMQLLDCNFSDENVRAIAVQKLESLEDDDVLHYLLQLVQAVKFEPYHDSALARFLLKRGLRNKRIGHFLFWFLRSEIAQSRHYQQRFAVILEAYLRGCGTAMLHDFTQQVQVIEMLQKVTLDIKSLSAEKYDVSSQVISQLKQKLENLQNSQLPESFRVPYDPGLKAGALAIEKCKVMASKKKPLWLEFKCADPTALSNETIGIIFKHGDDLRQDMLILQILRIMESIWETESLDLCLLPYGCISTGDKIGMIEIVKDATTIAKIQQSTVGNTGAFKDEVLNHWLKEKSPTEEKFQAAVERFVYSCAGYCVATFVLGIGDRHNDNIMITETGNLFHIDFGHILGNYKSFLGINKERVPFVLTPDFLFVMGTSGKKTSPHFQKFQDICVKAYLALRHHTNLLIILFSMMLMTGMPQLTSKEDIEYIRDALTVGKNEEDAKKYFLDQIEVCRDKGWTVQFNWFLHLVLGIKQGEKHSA

## C[C@H](Nc1ccc2c(c1)OCCn1cc(N3C(=O)SC[C@H]3C(F)F)nc1-2)C(N)=O [Example 22, (S)-2-((2-((R)-4-(difluoromethyl)-2-oxothiazolidin-3-yl)-5,6-dihydrobenzo[f]imidazo[1,2-d][1,4]oxazepin-9-yl)amino)propionamide]
PI3Kδ
  Selectivity of PI3Kα vs PI3Kδ: 245
HCC1954 cell
  Tumor growth inhibition rate: 132%
PI3Kγ
  Selectivity of PI3Kα vs PI3Kγ: 450
PI3Kβ
  Selectivity of PI3Kα vs PI3Kβ: 840
HGC-27 (E542K)
  IC50: 40 nM
HCC1954 (H1047R)
  IC50: 21 nM
MKN1 (E545K)
  IC50: 60 nM

## C[C@H](Nc1ccc2c(c1)SCCn1cc(N3C(=O)OC[C@H]3C(F)F)nc1-2)C(N)=O [Example 62, (S)-2-((2-((S)-4-(difluoromethyl)-2-oxooxazolidin-3-yl)-5,6-dihydrobenzo[f]imidazo[1,2-d][1,4]thiazepin-9-yl)amino)propionamide]
PI3Kδ
  IC50: 28 nM
  Selectivity of PI3Kα vs PI3Kδ: 280
HCC1954 cell
  Tumor growth inhibition rate: 147%
PI3Kγ
  IC50: 50 nM
  Selectivity of PI3Kα vs PI3Kγ: 500
PI3Kβ
  IC50: 102 nM
  Selectivity of PI3Kα vs PI3Kβ: 1020
HGC-27 (E542K)
  IC50: 22 nM
HCC1954 (H1047R)
  IC50: 13 nM
MKN1 (E545K)
  IC50: 25 nM

## C[C@H](Nc1ccc2c(c1)N(C)CCn1cc(N3C(=O)OC[C@H]3C(F)F)nc1-2)C(N)=O [Example 56, (S)-2-((2-((S)-4-(difluoromethyl)-2-oxooxazolidin-3-yl)-7-methyl-6,7-dihydro-5H-benzo[f]imidazo[1,2-d][1,4]diazoheptin-9-yl)amino)propionamide]
PI3Kδ
  IC50: 49 nM
  Selectivity of PI3Kα vs PI3Kδ: 98
HCC1954 cell
  Tumor growth inhibition rate: 122%
PI3Kγ
  IC50: 90 nM
  Selectivity of PI3Kα vs PI3Kγ: 180
PI3Kβ
  IC50: 168 nM
  Selectivity of PI3Kα vs PI3Kβ: 336
HGC-27 (E542K)
  IC50: 110 nM
HCC1954 (H1047R)
  IC50: 50 nM
MKN1 (E545K)
  IC50: 104 nM
